Tested on: primary rat osteoblasts
Assay: Proliferation of primary rat osteoblasts (cell counts and [3H]-thymidine incorporation)
Assay type: cell-based
Details: for Mitogenic / proliferative effect on primary osteoblasts (in words): significantly different from control by ANOVA, post hoc Dunnett's test
Protocol: Osteoblasts were isolated by collagenase digestion from 20-day fetal rat ? viously described by Lowe, et al. (1991). Calvariae were dissected aseptically, and the frontal and parietal bones were stripped of their periosteum. Only the central portions of the bones, free from suture tissue, were collected. The calvariae were treated twice with phosphate buffered saline (PBS) containing 3 mM EDTA (pH 7.4) for 15 minutes at 37° C. in a shaking water bath. After washing once in PBS, the calvariae were treated twice with 3 ml of 1 mg/ml collagenase for 7 minutes at 37° C. After discarding the supernatants from digestions I and II, the calvariae were treated further two times with 3 ml of 2 mg/ml collagenase (30 mins, 37° C.). The supernatants of digestions III and IV were pooled, centrifuged, and the cells washed in Dulbecco's modified Eagle's medium (DME) with 10% fetal calf serum (FCS), suspended in DME/10% FCS, and placed in […] flasks. The cells were incubated under 5% CO2 and 95% air at 37° C. Confluence was reached by 5-6 days, at which time the cells were subcultured. After trypsinization using trypsin-EDTA (0.05%/0.53 mM), the cells were rinsed in minimum essential medium (MEM) with 5% FCS and resuspended in a fresh medium, then seeded at 5×10^4 cells/ml in 24-well plates (0.5 ml cell suspension per well, i.e., 1.4×10^4 cells/cm^2).
Proliferation studies (cell counts and thymidine incorporation) were performed both in actively growing and non-actively growing cell populations. To produce actively growing cells, sub-confluent populations (24 h after subculturing) were placed in fresh MEM containing 1% FCS and a lactoferrin fragment sample (see Table 1 below). To produce non-actively growing cells, sub-confluent populations were placed in serum-free medium with 0.1% bovine serum albumin plus a lactoferrin fragment sample. Cell numbers were analyzed at 6, 24, and 48 hours after the addition of lactoferrin fragment samples. The cell numbers were determined after detaching cells from the wells by exposure to trypsin/EDTA (0.05%/0.53 mM) for approximately 5 minutes at 37° C. Counting was performed in a haemocytometer chamber. [3H]-thymidine incorporation into actively growing and non-actively growing cells was assessed by pulsing the cells with [3H]-thymidine (1 μCi/well) two hours before the end of the incubation. The experiment was terminated at 6, 24, or 48 hours by washing the cells in MEM containing cold thymidine followed by the addition of 10% trichloroacetic acid. The precipitate was washed twice with ethanol:ether (3:1), and the wells desiccated at room temperature. The ? redissolved in 2 M KOH at 55° C. for 30 min, neutralized with 1 M HCl, and an aliquot counted for radioactivity. For both cell counts and thymidine incorporation, each experiment at each time point was performed at least 4 different times using experimental groups consisting of at least 6 wells.
The osteogenic response seen above was compared with that of insulin-like growth factor 1 (IGF-1), a well-recognized osteoblast mitogen. The magnitudes of response of the lactoferrin fragments were similar to IGF-1 in the same osteoblast cell culture system.

[1] = primary rat osteoblasts, Table 1

Row | Sequence | Mitogenic / proliferative effect on primary osteoblasts (in words) (figure legends) | Dose (ug/mL): minimum dose range that stimulates osteoblast proliferation [1] [µg/mL] | Concentration at which osteoblast proliferation is significantly different from control (figure legends, post hoc Dunnett's test P<0.05 or P<0.01) [µg/mL] | Dose (M): minimum dose range that stimulates osteoblast proliferation (primary rat osteoblasts, Table 1, printed as orders of magnitude, e.g. 10^−7/8)
1 | FKCRRWQWRMKKLGA [SEQ ID NO. 17] | mitogenic to primary osteoblasts | 0.1 to 10 |  | 
2 | FKCRRWQWRMKKLGAPSITCVRRAFA [SEQ ID NO. 14] | mitogenic to primary osteoblasts | 0.01 to 1.0 | 0.01 | 
3 | RRWQWRMKKLG [SEQ ID NO. 16] |  | 0.1 to 10 |  | 
4 | WKLLSKAQEKFGKNKS (listed as Bos taurus) [SEQ ID NO. 33] | mitogenic to primary osteoblasts | 100 |  | 10^−5 M
